Reference: PubChem BioAssay (NCI)
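Results reflect a 48-hour exposure of cells in 96-well plates to compound at five concentrations. GI50 marks 50% less growth. Definition used: TGI = concentration required for complete inhibition of growth.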

Experiments:
Test in all cases: NCI anticancer screen, dose series, 48 h
[1] = system: HCT-15 colon
[2] = system: MDA-MB-435
[3] = system: CAKI-1 renal
[4] = system: MALME-3M melanoma
[5] = system: SK-MEL-28 melanoma
[6] = system: MCF7 breast
[7] = system: SF-295 CNS
[8] = system: MDA-MB-231 breast

Cc1ccc(S(=O)(=O)c2ccsc2N)cc1
GI50 [1]: > 100 µM
TGI [1]: > 100 µM
GI50 [2]: > 100 µM
TGI [2]: > 100 µM
GI50 [3]: > 100 µM
TGI [3]: > 100 µM
GI50 [4]: > 100 µM
TGI [4]: > 100 µM
GI50 [5]: > 100 µM
TGI [5]: > 100 µM
GI50 [6]: > 100 µM
TGI [6]: > 100 µM
GI50 [7]: > 100 µM
TGI [7]: > 100 µM
GI50 [8]: > 100 µM
TGI [8]: > 100 µM

CC1(C)N=C(N)N=C(N)N1c1ccc(OCCCCNC(=O)c2ccc(S(=O)(=O)F)cc2)c(Cl)c1
GI50 [1]: 23.3 µM
TGI [1]: > 100 µM
GI50 [2]: 4.87 µM
TGI [2]: > 100 µM
GI50 [3]: 43.8 µM
TGI [3]: > 100 µM
GI50 [4]: > 100 µM
TGI [4]: > 100 µM
GI50 [5]: 54.1 µM
TGI [5]: > 100 µM
GI50 [6]: 3.9 µM
TGI [6]: > 100 µM
GI50 [7]: 51.1 µM
TGI [7]: > 100 µM
GI50 [8]: 66.2 µM
TGI [8]: > 100 µM

O=C(Nc1cccc([N+](=O)[O-])c1)c1cc2ccccc2cc1O
GI50 [1]: 2.75 µM
TGI [1]: 28.3 µM
GI50 [2]: 1.5 µM
TGI [2]: 5.41 µM
GI50 [3]: 1.16 µM
TGI [3]: 4.88 µM
GI50 [4]: 0.376 µM
TGI [4]: 2.26 µM
GI50 [5]: 3.23 µM
TGI [5]: > 100 µM
GI50 [6]: 1.36 µM
TGI [6]: 6.21 µM
GI50 [7]: 1.96 µM
TGI [7]: 5.33 µM
GI50 [8]: 1.47 µM
TGI [8]: 3.64 µM

N#C/C(=C\c1cccnc1)c1nc2ccccc2o1
GI50 [1]: > 100 µM
TGI [1]: > 100 µM
GI50 [2]: > 100 µM
TGI [2]: > 100 µM
GI50 [3]: > 100 µM
TGI [3]: > 100 µM
GI50 [4]: 21.8 µM
TGI [4]: > 100 µM
GI50 [5]: > 100 µM
TGI [5]: > 100 µM
GI50 [6]: > 100 µM
TGI [6]: > 100 µM
GI50 [7]: > 100 µM
TGI [7]: > 100 µM
GI50 [8]: > 100 µM
TGI [8]: > 100 µM

COc1ccc(/C=C/c2cnc3ccccc3n2)cc1OC
TGI [1]: > 100 µM
TGI [2]: > 100 µM
TGI [3]: > 100 µM
TGI [4]: > 100 µM
TGI [5]: > 100 µM
TGI [6]: > 100 µM
TGI [7]: > 100 µM
TGI [8]: > 100 µM

O=c1[nH]cnc2nc(-c3ccc(N(CCCl)CCCl)cc3)[nH]c12
GI50 [1]: 9.81 µM
TGI [1]: > 100 µM
GI50 [2]: 3.21 µM
TGI [2]: > 100 µM
GI50 [3]: 4.25 µM
TGI [3]: > 100 µM
GI50 [4]: 33 µM
TGI [4]: > 100 µM
GI50 [5]: > 100 µM
TGI [5]: > 100 µM
GI50 [6]: > 100 µM
TGI [6]: > 100 µM
GI50 [7]: 1.57 µM
TGI [7]: 6.5 µM
GI50 [8]: 3.23 µM
TGI [8]: > 100 µM

CN(C)c1ccc(N=C(C#N)c2nc(N)nc(N3CCN(c4ccccc4)CC3)n2)cc1
GI50 [1]: > 28.5 µM
TGI [1]: > 50 µM
GI50 [2]: > 43.9 µM
TGI [2]: > 50 µM
GI50 [3]: 20.4 µM
TGI [3]: > 46.7 µM
GI50 [4]: 0.0338 µM
TGI [4]: 1.16 µM
GI50 [5]: 12.7 µM
TGI [5]: > 50 µM
GI50 [6]: 21 µM
TGI [6]: 37.4 µM
GI50 [7]: 14.7 µM
TGI [7]: > 43.7 µM
GI50 [8]: 10.7 µM
TGI [8]: 31.3 µM

O=c1oc2cc(OS(=O)(=O)c3ccccc3)ccc2c2c1CCCCC2
GI50 [1]: 3.92 µM
TGI [1]: > 100 µM
GI50 [2]: 9.44 µM
TGI [2]: > 100 µM
GI50 [3]: 7.38 µM
TGI [3]: > 100 µM
GI50 [4]: 29.4 µM
TGI [4]: > 100 µM
GI50 [5]: > 100 µM
TGI [5]: > 100 µM
GI50 [6]: 5.14 µM
TGI [6]: > 100 µM
GI50 [7]: > 100 µM
TGI [7]: > 100 µM
GI50 [8]: > 100 µM
TGI [8]: > 100 µM

O=C(O)c1ccc2cccnc2c1O
GI50 [1]: 0.994 µM
TGI [1]: > 100 µM
GI50 [2]: 0.87 µM
TGI [2]: 35.8 µM
GI50 [3]: 2.16 µM
TGI [3]: 13.8 µM
GI50 [4]: 1.84 µM
TGI [4]: 4.41 µM
GI50 [5]: 3.69 µM
TGI [5]: > 100 µM
GI50 [6]: 1.5 µM
TGI [6]: > 100 µM
GI50 [7]: 0.0521 µM
TGI [7]: 0.474 µM
TGI [8]: > 100 µM

CC(=O)Nc1cc2cc(NS(=O)(=O)c3cc(C(F)(F)F)cc(C(F)(F)F)c3)ccc2oc1=O
TGI [1]: > 100 µM
TGI [2]: > 100 µM
TGI [3]: > 100 µM
TGI [4]: > 100 µM
TGI [5]: > 100 µM
TGI [6]: > 100 µM
TGI [7]: > 100 µM
TGI [8]: > 100 µM

Cc1[nH]n(-c2ccccc2)c(=O)c1C(=O)c1ccccc1
GI50 [1]: > 23.9 µM
TGI [1]: > 25 µM
GI50 [2]: > 25 µM
TGI [2]: > 25 µM
GI50 [3]: > 25 µM
TGI [3]: > 25 µM
GI50 [4]: > 25 µM
TGI [4]: > 25 µM
GI50 [5]: > 25 µM
TGI [5]: > 25 µM
GI50 [6]: > 25 µM
TGI [6]: > 25 µM
GI50 [7]: > 25 µM
TGI [7]: > 25 µM
GI50 [8]: > 25 µM
TGI [8]: > 25 µM

N#Cc1ccc2c(c1)C(=O)c1c-2n(CCCN=[N+]=[N-])c(=O)c2cc([N+](=O)[O-])ccc12
GI50 [1]: > 50 µM
TGI [1]: > 50 µM
GI50 [2]: > 50 µM
TGI [2]: > 50 µM
GI50 [3]: 9.86 µM
TGI [3]: > 50 µM
GI50 [4]: > 50 µM
TGI [4]: > 50 µM
GI50 [5]: > 50 µM
TGI [5]: > 50 µM
GI50 [6]: 1.35 µM
TGI [6]: > 50 µM
GI50 [7]: 8 µM
TGI [7]: > 50 µM
GI50 [8]: > 50 µM
TGI [8]: > 50 µM

Cc1cc(Cl)ccc1NC(=O)NC(C)(C)COC(=O)Nc1cccc(Cl)c1
GI50 [1]: 2.48 µM
TGI [1]: 13.1 µM
GI50 [2]: 10.9 µM
TGI [2]: 49.4 µM
GI50 [3]: 4.38 µM
TGI [3]: 75.3 µM
GI50 [4]: 9.6 µM
TGI [4]: 50.3 µM
GI50 [5]: 22.3 µM
TGI [5]: > 100 µM
GI50 [6]: 2.49 µM
TGI [6]: 24.4 µM
GI50 [7]: 0.945 µM
TGI [7]: 8.31 µM
GI50 [8]: 5.45 µM
TGI [8]: 26 µM

C=C1C[C@@H]2[C@H](CC[C@]3(C)C(=O)CC[C@@H]23)[C@@]2(C)C=CC(=O)C=C12
GI50 [1]: 10 µM
TGI [1]: 34.3 µM
GI50 [2]: 26.3 µM
TGI [2]: > 81.5 µM
GI50 [3]: > 55.9 µM
TGI [3]: > 100 µM
GI50 [4]: > 43.9 µM
TGI [4]: > 73.4 µM
GI50 [5]: 42.5 µM
TGI [5]: > 100 µM
GI50 [6]: 14.6 µM
TGI [6]: > 62.2 µM
GI50 [7]: 28.5 µM
TGI [7]: 74.5 µM
GI50 [8]: 35 µM
TGI [8]: > 100 µM

N#CC1CCc2c(c(-c3cn[nH]c3C(F)(F)F)nc3c(F)cc4[nH]ncc4c23)C1 (stereo not drawn)
GI50 [1]: 53.1 µM
TGI [1]: > 100 µM
GI50 [2]: 4.43 µM
TGI [2]: 41.1 µM
GI50 [3]: 18.6 µM
TGI [3]: > 100 µM
GI50 [4]: 3.31 µM
TGI [4]: 11.5 µM
GI50 [5]: 4.43 µM
TGI [5]: 30.4 µM
GI50 [6]: 3.5 µM
TGI [6]: 47.4 µM
GI50 [7]: 14 µM
TGI [7]: 46.2 µM
GI50 [8]: 4.96 µM
TGI [8]: 38.1 µM
